Results: US11072635B2, “Macrocyclic broad spectrum antibiotics” (priority 2015, dated 2021)
In brackets after ≈: the same amount, converted by molar mass. Like-named read-outs stand apart in the source and are kept apart here.

Columns and labels:
Assay type in all cases: cell-based
[1] = system: Methicillin Resistant Staphylococcus aureus strain USA 300, NRS384 (S. aureus); experiment: Minimum inhibitory concentration, broth micro-dilution (CLSI)
Procedure: (§1) In vitro antimicrobial activity of each compound was determined by measuring minimal inhibitor concentrations (MICs) using the broth micro-dilution technique as approved by the Clinical and Laboratory Standards Institute (CLSI) (Methods for Dilution Antimicrobial Susceptibility Tests for Bacteria that Grow Aerobically; Approved Standard—Eighth Edition. CLSI document M07-A8. Wayne, Pa.: Clinical and Laboratory Standards; 2009). Antibacterial activity was measure against three strains of bacteria: a Methicillin Resistant Staphylococcus aureus strain USA 300, NRS384 (S. aureus); a strain of Escherichia coli MC4100 harboring the IMP4213 (E. coli IMP), which results in increased outer-membrane permeability (B Martin and Silhavy T. Imp/OstA is required for cell envelope biogenesis in Escherichia coli. (2002) Molecular Microbiology, 45(5), 1289-1302), and Escherichia coli ATCC 25922 (E. coli), a clinically relevant Gram-negative strain. Cells were inoculated onto plates of Trypyticase Soy Agar or Luria Agar respectively and grown at 35° C. for 20 hours. Inocula suspensions were prepared by scraping cells into 1 mL of testing media (cation adjusted Mueller Hinton Broth supplemented with 0.002% v/v Tween-80) and diluting to a final OD600 nm of 0.01.
(§2) Test compounds were prepared in DMSO at a concentration of 10 mg/mL. […] In protocol 2, the compound stocks were diluted into testing media at a concentration of 4 μg/mL and serial 2-fold dilutions were made in the same media, in 96-well U bottom microtiter dishes, for a total of 10 compound concentrations. In protocol 3, compound stocks were diluted into testing media at a concentration of 0.5 μg/mL, with serial 2-fold dilutions conducted as described above. […] Inocula suspensions were added to the 2-fold serial dilutions of test compounds to a final density of OD OD600 nm of 0.0005 and incubated at 35° C. for 22 hours.

[2] = system: Escherichia coli MC4100 harboring the IMP4213 (E. coli IMP); experiment: microbe, parasite or virus in culture; conditions: 22 h, read-out: MIC (μg/mL) E. coli IMP
Procedure: as §1, §2

[3] = system: Escherichia coli ATCC 25922 (E. coli); experiment: Minimum inhibitory concentration, broth micro-dilution (CLSI); conditions: read-out: MIC (μg/mL) E. coli
Procedure: Cells were inoculated onto plates of Trypyticase Soy Agar or Luria Agar respectively and grown at 35° C. for 20 hours. Inocula suspensions were prepared by scraping cells into 1 mL of testing media (cation adjusted Mueller Hinton Broth supplemented with 0.002% v/v Tween-80) and diluting to a final OD600 nm of 0.01.
as §2

[4] = MRSA / NRS 384 / USA300, MRSA USA 300, NRS384, 35° C., 22 hours, cation adjusted Mueller Hinton Broth with 0.002% Tween-80, read-out: MIC (μg/mL) S. aureus
[5] = ATCC25922, E. coli ATCC 25922, 35° C., 22 hours
[6] = MRSA / NRS 384 / USA300, 22 h, read-out: MIC (μg/mL) S. aureus

Row | SMILES | MIC [1, 4] [µg/mL] | MIC [2] [µg/mL] | MIC [3, 5] [µg/mL] | MIC [1, 6] [µg/mL] | MIC ([3]; ATCC25922, 22 h) [µg/mL]
1 | CCCCCCCc1ccc(C(=O)N[C@@H](CCN)C(=O)N(C)[C@@H]2C(=O)N[C@@H](C)C(=O)N[C@H](C(=O)NC/C=N/N3CC(=O)NC3=O)Cc3ccc(OCCN)c(c3)-c3cc2ccc3OCCN)c(C)c1 [Compound 101] | 0.094 (≈ 0.0985 µM) | 0.031 (≈ 0.0325 µM) | 4 (≈ 4.19 µM) | – | –
2 | CCCCCCCc1ccc(C(=O)N[C@@H](CCN)C(=O)N(C)[C@@H]2C(=O)N[C@@H](C)C(=O)N[C@H](C(=O)N[C@@H](C)/C=N/N3CC(=O)NC3=O)Cc3ccc(OCCN)c(c3)-c3cc2ccc3OCCN)c(C)c1 [Compound 102] | 0.13 (≈ 0.134 µM) | 0.094 (≈ 0.0971 µM) | 8 (≈ 8.26 µM) | – | –
3 | CCCCCCCc1ccc(C(=O)N[C@@H](CCN)C(=O)N(C)[C@@H]2C(=O)N[C@@H](C)C(=O)N[C@H](C(=O)O)Cc3ccc(OCCN)c(c3)-c3cc2ccc3OCCN)c(C)c1 [Compound 103] | – | 0.0078 (≈ 0.00956 µM) | – | 0.17 (≈ 0.208 µM) | 0.75 (≈ 0.919 µM)
4 | CCCCCCCc1ccc(C(=O)N[C@@H](CCN)C(=O)N(C)[C@@H]2C(=O)N[C@@H](C)C(=O)N[C@H](C(=O)NS(=O)(=O)CCl)Cc3ccc(OCCN)c(c3)-c3cc2ccc3OCCN)c(C)c1 [Compound 104] | 0.75 (≈ 0.809 µM) | 0.023 (≈ 0.0248 µM) | 4 (≈ 4.31 µM) | – | –
5 | CCCCCCCc1ccc(C(=O)N[C@@H](CCN)C(=O)N(C)[C@@H]2C(=O)N[C@@H](C)C(=O)N[C@H](C(=O)N[C@@H](C)C(=O)NOC(C)=O)Cc3ccc(OCCN)c(c3)-c3cc2ccc3OCCN)c(C)c1 [Compound 108] | – | 0.5 (≈ 0.53 µM) | – | 0.75 (≈ 0.794 µM) | 32 (≈ 33.9 µM)
6 | CCCCCCCc1ccc(C(=O)N[C@@H](CCN)C(=O)N(C)[C@@H]2C(=O)N[C@@H](C)C(=O)N[C@H](C(=O)NS(=O)(=O)O)Cc3ccc(OCCN)c(c3)-c3cc2ccc3OCCN)c(C)c1 [Compound 111] | – | 0.063 (≈ 0.0704 µM) | – | 0.25 (≈ 0.279 µM) | 8 (≈ 8.94 µM)
7 | CCCCCCCCc1ccc(C(=O)N[C@@H](CCN)C(=O)N(C)[C@@H]2C(=O)N[C@@H](C)C(=O)N[C@H](C(=O)NCC(=O)NCC#N)Cc3ccc(OCCN)c(c3)-c3cc2ccc3OCCN)c(C)c1 [Compound 114] | – | 0.13 (≈ 0.141 µM) | – | 0.5 (≈ 0.54 µM) | 8 (≈ 8.65 µM)
8 | CCCCCCOc1ccc(C(=O)N[C@@H](CCN)C(=O)N(C)[C@@H]2C(=O)N[C@@H](C)C(=O)N[C@H](C(=O)N[C@@H](C)C(=O)c3nnn[nH]3)Cc3ccc(OCCN)c(c3)-c3cc2ccc3OCCN)c(Cl)c1 [Compound 116] | – | 0.063 (≈ 0.0655 µM) | – | 0.063 (≈ 0.0655 µM) | 4 (≈ 4.16 µM)
9 | CCCCc1ccc(-c2ccc(C(=O)N[C@@H](CN)C(=O)N(C)[C@@H]3C(=O)N[C@@H](C)C(=O)N[C@H](C(=O)NC(C)=O)Cc4ccc(OCCN)c(c4)-c4cc3ccc4OCCN)cc2)cc1 [Compound 122] | – | 0.094 (≈ 0.109 µM) | – | 1.5 (≈ 1.74 µM) | 3 (≈ 3.48 µM)
10 | C=C(C#N)NC(=O)[C@@H]1Cc2ccc(OCCN)c(c2)-c2cc(ccc2OCCN)[C@H](N(C)C(=O)[C@H](CCCN)NC(=O)c2ccc(-c3ccc(CCCC)cc3)cc2)C(=O)N[C@@H](C)C(=O)N1 [Compound 130] | – | 0.13 (≈ 0.144 µM) | – | 0.38 (≈ 0.422 µM) | 6 (≈ 6.67 µM)
11 | CCCCc1ccc(-c2ccc(C(=O)N[C@@H](CN)C(=O)N(C)[C@@H]3C(=O)N[C@@H](C)C(=O)N[C@H](c4nsc(=O)[nH]4)Cc4ccc(OCCN)c(c4)-c4cc3ccc4OCCN)cc2)cc1 [Compound 132] | – | 0.25 (≈ 0.285 µM) | – | 4 (≈ 4.56 µM) | 8 (≈ 9.11 µM)
12 | CCCCCCCc1ccc(C(=O)N[C@@H](CCN)C(=O)N(C)[C@@H]2C(=O)N[C@@H](C)C(=O)N[C@H](C(=O)N[C@@H](C)C(=O)Oc3ccccc3)Cc3ccc(OCCN)c(c3)-c3cc2ccc3OCCN)c(C)c1 [Compound 148] | 0.5 (≈ 0.519 µM) | – | 15.8 (≈ 16.5 µM) | – | –
13 | CCCCCCCc1ccc(C(=O)N[C@@H](CCN)C(=O)N(C)[C@@H]2C(=O)N[C@@H](C)C(=O)N[C@H](C(=O)N[C@@H](C)C(=O)NOC(N)=O)Cc3ccc(OCCN)c(c3)-c3cc2ccc3OCCN)c(C)c1 [Compound 149] | 0.25 (≈ 0.265 µM) | – | 16.1 (≈ 17.1 µM) | – | –
14 | CCCCCCCc1ccc(C(=O)N[C@@H](CCN)C(=O)N(C)[C@@H]2C(=O)N[C@@H](C3CC3)C(=O)N[C@H](C(=O)N[C@@H](C)C(C)=O)Cc3ccc(OCCN)c(c3)-c3cc2ccc3OCCN)c(C)c1 [Compound 150] | 0.068 (≈ 0.0746 µM) | – | 4.39 (≈ 4.82 µM) | – | –
